Reference: ChEMBL document CHEMBL4507278 (2021)

Columns and labels:
[1] = target: Serine/threonine-protein kinase MRCK gamma (Homo sapiens) (UniProt Q6DT37); settings: Compound concentration 1000.0 nM
[2] = target: Mitogen-activated protein kinase kinase kinase 19 (Homo sapiens) (UniProt Q56UN5); settings: Compound concentration 1000.0 nM
[3] = target: Ephrin type-A receptor 5 (Homo sapiens) (UniProt P54756); settings: Compound concentration 1000.0 nM
[4] = target: Beta-2 adrenergic receptor (Homo sapiens) (UniProt P07550); settings: Compound concentration 10.0 uM
[5] = target: Calcium/calmodulin-dependent protein kinase type 1D (Homo sapiens) (UniProt Q8IU85); settings: Compound concentration 1000.0 nM
Calcium/calmodulin-dependent protein kinase type 1D (Homo sapiens), sequence (Q8IU85 whole entry, looked up): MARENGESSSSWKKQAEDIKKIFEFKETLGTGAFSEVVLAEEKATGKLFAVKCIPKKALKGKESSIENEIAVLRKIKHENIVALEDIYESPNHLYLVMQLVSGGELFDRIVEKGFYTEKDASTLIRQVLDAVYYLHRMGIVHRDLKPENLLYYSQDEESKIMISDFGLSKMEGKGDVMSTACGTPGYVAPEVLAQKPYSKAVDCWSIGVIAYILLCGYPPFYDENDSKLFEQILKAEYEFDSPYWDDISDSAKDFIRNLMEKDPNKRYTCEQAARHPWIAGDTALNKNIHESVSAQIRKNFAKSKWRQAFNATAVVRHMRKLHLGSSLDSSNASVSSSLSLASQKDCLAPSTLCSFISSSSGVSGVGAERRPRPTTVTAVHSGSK

[6] = target: Beta-adrenergic receptor kinase 1 (Homo sapiens) (UniProt P25098); settings: Compound concentration 1000.0 nM
[7] = target: Muscarinic acetylcholine receptor M5 (Homo sapiens) (UniProt P08912); settings: Compound concentration 10.0 uM
[8] = target: Serine/threonine-protein kinase VRK2 (Homo sapiens) (UniProt Q86Y07); settings: Compound concentration 1000.0 nM
[9] = target: Cyclin-dependent kinase-like 3 (Homo sapiens) (UniProt Q8IVW4); settings: Compound concentration 1000.0 nM
[10] = target: Vascular endothelial growth factor receptor 1 (Homo sapiens) (UniProt P17948); settings: Compound concentration 1000.0 nM
Vascular endothelial growth factor receptor 1 (Homo sapiens), sequence (P17948 whole entry): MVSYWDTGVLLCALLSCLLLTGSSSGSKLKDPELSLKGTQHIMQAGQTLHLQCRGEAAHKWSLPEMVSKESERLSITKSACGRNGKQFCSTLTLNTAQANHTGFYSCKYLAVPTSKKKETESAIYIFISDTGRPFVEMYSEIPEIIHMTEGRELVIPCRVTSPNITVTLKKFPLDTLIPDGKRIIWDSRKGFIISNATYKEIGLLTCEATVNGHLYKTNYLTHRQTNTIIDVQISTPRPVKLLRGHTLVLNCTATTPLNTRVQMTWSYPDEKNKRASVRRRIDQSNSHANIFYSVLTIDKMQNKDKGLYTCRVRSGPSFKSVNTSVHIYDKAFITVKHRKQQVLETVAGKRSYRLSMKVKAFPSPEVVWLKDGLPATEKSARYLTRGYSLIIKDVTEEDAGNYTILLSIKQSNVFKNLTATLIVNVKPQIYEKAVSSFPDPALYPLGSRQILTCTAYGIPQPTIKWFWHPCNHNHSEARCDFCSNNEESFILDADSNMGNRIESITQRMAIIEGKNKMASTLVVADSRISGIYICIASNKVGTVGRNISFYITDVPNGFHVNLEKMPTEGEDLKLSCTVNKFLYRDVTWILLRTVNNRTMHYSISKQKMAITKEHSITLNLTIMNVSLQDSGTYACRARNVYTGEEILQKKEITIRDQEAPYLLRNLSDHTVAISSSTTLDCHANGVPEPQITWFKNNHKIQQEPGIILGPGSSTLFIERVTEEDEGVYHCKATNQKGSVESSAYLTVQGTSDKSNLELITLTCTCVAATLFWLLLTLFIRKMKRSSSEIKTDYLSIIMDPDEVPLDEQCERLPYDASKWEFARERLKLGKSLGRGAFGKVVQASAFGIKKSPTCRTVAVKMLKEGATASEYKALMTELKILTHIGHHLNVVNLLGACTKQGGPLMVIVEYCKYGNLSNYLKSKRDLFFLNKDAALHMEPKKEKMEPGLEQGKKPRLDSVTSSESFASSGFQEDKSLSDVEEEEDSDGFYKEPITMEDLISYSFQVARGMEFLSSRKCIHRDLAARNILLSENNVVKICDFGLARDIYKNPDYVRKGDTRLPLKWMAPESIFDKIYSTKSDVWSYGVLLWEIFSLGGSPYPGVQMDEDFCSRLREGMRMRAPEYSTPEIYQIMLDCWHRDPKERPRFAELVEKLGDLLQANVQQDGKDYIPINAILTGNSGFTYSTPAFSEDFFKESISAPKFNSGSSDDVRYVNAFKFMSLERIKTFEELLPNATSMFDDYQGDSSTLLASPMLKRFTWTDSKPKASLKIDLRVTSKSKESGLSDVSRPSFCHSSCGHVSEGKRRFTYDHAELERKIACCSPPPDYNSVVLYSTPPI

[11] = target: Mitogen-activated protein kinase kinase kinase kinase 3 (Homo sapiens) (UniProt Q8IVH8); settings: Compound concentration 1000.0 nM
[12] = target: Casein kinase I isoform gamma-2 (Homo sapiens) (UniProt P78368); settings: Compound concentration 1000.0 nM
[13] = target: Receptor-interacting serine/threonine-protein kinase 4 (Homo sapiens) (UniProt P57078); settings: Compound concentration 1000.0 nM
[14] = target: Serine/threonine-protein kinase PAK 3 (Homo sapiens) (UniProt O75914); settings: Compound concentration 1000.0 nM
[15] = target: D(2) dopamine receptor (Homo sapiens) (UniProt P14416); settings: Compound concentration 10.0 uM
[16] = test system: Phosphatidylinositol 4,5-bisphosphate 3-kinase catalytic subunit alpha isoform (Homo sapiens), P42336 [Q546K]; settings: Compound concentration 1000.0 nM
Phosphatidylinositol 4,5-bisphosphate 3-kinase catalytic subunit alpha isoform (Homo sapiens), P42336 [Q546K], sequence (P42336 whole entry Q546K, canonical isoform): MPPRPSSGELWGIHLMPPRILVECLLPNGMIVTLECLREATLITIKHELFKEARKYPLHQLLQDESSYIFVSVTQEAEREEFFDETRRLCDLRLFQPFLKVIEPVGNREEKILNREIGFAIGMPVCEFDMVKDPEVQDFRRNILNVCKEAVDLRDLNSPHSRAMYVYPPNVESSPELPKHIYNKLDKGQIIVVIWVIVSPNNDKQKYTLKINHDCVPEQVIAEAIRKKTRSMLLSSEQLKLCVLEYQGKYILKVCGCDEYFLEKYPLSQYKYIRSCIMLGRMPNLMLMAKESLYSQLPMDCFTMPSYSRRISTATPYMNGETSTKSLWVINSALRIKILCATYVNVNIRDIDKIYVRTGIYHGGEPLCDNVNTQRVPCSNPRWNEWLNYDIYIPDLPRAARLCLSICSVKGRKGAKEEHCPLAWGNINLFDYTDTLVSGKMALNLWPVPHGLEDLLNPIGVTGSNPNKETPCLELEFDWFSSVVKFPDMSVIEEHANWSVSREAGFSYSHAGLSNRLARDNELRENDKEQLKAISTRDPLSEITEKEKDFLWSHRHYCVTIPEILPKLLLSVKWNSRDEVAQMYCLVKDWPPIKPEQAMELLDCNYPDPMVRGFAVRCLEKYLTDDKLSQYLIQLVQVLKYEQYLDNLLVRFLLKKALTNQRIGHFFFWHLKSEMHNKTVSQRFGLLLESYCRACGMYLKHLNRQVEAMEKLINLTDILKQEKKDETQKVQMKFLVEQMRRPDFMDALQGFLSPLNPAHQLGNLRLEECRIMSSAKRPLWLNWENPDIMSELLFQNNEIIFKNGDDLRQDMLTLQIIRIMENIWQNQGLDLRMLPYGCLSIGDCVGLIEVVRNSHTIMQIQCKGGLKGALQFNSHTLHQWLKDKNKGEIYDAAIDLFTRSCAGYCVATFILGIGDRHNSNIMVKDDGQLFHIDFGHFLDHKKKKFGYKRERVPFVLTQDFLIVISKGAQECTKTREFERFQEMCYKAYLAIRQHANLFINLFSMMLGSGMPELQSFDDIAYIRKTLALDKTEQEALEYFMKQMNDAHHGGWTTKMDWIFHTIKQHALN

[17] = target: Mitogen-activated protein kinase kinase kinase 6 (Homo sapiens) (UniProt O95382); settings: Compound concentration 1000.0 nM
[18] = target: Serine/threonine-protein kinase N1 (Homo sapiens) (UniProt Q16512); settings: Compound concentration 1000.0 nM
[19] = target: Tyrosine-protein kinase JAK3 (Homo sapiens) (UniProt P52333); settings: Compound concentration 1000.0 nM
[20] = target: Insulin-like growth factor 1 receptor (Homo sapiens) (UniProt P08069); settings: Compound concentration 1000.0 nM
[21] = target: Cyclin-dependent kinase 3 (Homo sapiens) (UniProt Q00526); settings: Compound concentration 1000.0 nM
[22] = target: Calcium/calmodulin-dependent protein kinase type IV (Homo sapiens) (UniProt Q16566); settings: Compound concentration 1000.0 nM
[23] = target: Serine/threonine-protein kinase 38 (Homo sapiens) (UniProt Q15208); settings: Compound concentration 1000.0 nM
[24] = target: Activin receptor type-2B (Homo sapiens) (UniProt Q13705); settings: Compound concentration 1000.0 nM
[25] = target: MAP/microtubule affinity-regulating kinase 3 (Homo sapiens) (UniProt P27448); settings: Compound concentration 1000.0 nM
[26] = target: Eukaryotic translation initiation factor 2-alpha kinase 1 (Homo sapiens) (UniProt Q9BQI3); settings: Compound concentration 1000.0 nM
Eukaryotic translation initiation factor 2-alpha kinase 1 (Homo sapiens), sequence (Q9BQI3 whole entry): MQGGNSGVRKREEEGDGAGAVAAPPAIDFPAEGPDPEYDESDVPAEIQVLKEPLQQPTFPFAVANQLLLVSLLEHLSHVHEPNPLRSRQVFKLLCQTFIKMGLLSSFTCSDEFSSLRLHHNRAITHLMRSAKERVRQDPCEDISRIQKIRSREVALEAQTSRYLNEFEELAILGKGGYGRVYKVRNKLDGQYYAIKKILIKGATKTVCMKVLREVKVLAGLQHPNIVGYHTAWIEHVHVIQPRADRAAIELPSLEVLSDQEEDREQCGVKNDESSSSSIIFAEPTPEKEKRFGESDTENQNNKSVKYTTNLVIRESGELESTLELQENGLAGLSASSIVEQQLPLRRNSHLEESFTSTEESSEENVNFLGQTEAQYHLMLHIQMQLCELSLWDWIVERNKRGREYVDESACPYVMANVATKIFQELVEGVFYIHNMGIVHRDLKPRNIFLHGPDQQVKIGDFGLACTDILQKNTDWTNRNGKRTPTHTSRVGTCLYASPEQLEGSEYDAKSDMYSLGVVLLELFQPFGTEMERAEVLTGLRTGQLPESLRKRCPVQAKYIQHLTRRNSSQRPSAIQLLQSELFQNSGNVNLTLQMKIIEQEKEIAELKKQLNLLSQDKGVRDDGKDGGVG

[27] = target: Fibroblast growth factor receptor 2 (Homo sapiens) (UniProt P21802); settings: Compound concentration 1000.0 nM
[28] = test system: Receptor-type tyrosine-protein kinase FLT3 (Homo sapiens), P36888 [UNDEFINED MUTATION]; settings: Compound concentration 1000.0 nM
[29] = target: Tyrosine-protein kinase HCK (Homo sapiens) (UniProt P08631); settings: Compound concentration 1000.0 nM
[30] = test system: Epidermal growth factor receptor (Homo sapiens), P00533 [UNDEFINED MUTATION]; settings: Compound concentration 1000.0 nM
[31] = target: Tyrosine-protein kinase Fyn (Homo sapiens) (UniProt P06241); settings: Compound concentration 1000.0 nM
[32] = target: SRSF protein kinase 2 (Homo sapiens) (UniProt P78362); settings: Compound concentration 1000.0 nM
[33] = target: Serine/threonine-protein kinase 17A (Homo sapiens) (UniProt Q9UEE5); settings: Compound concentration 1000.0 nM
[34] = target: Ephrin type-B receptor 4 (Homo sapiens) (UniProt P54760); settings: Compound concentration 1000.0 nM
[35] = target: Dual specificity mitogen-activated protein kinase kinase 2 (Homo sapiens) (UniProt P36507); settings: Compound concentration 1000.0 nM
[36] = target: Calcium/calmodulin-dependent protein kinase kinase 1 (Homo sapiens) (UniProt Q8N5S9); settings: Compound concentration 1000.0 nM
[37] = target: Myosin light chain kinase, smooth muscle (Homo sapiens) (UniProt Q15746); settings: Compound concentration 1000.0 nM
[38] = target: Cyclin-dependent kinase 2 homolog (Plasmodium falciparum (isolate 3D7)) (UniProt P61075); settings: Compound concentration 1000.0 nM
[39] = target: Serine/threonine-protein kinase Chk2 (Homo sapiens) (UniProt O96017); settings: Compound concentration 1000.0 nM
[40] = target: Serine/threonine-protein kinase mTOR (Homo sapiens) (UniProt P42345); settings: Compound concentration 1000.0 nM
[41] = test system: Epidermal growth factor receptor (Homo sapiens), P00533 [G719C]; settings: Compound concentration 1000.0 nM
[42] = target: Casein kinase I isoform alpha (Homo sapiens) (UniProt P48729); settings: Compound concentration 1000.0 nM
Casein kinase I isoform alpha (Homo sapiens), sequence (P48729 2-337 limits assumed): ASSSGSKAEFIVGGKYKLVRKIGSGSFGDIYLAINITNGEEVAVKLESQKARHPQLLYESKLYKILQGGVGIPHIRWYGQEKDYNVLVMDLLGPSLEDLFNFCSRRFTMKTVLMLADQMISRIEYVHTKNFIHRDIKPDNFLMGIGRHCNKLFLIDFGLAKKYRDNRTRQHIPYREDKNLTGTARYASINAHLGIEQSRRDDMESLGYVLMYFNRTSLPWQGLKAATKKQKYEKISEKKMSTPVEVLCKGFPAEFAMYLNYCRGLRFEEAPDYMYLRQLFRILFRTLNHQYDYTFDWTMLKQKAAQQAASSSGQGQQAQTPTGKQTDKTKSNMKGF

[43] = target: Phosphatidylinositol 4,5-bisphosphate 3-kinase catalytic subunit alpha isoform (Homo sapiens) (UniProt P42336); settings: Compound concentration 1000.0 nM
Phosphatidylinositol 4,5-bisphosphate 3-kinase catalytic subunit alpha isoform (Homo sapiens), sequence (P42336 whole entry, canonical isoform): as the sequence (P42336 whole entry Q546K, canonical isoform) above, with K546Q counted along it

[44] = target: Serine/threonine-protein kinase BRSK2 (Homo sapiens) (UniProt Q8IWQ3); settings: Compound concentration 1000.0 nM
[45] = target: Serine/threonine-protein kinase OSR1 (Homo sapiens) (UniProt O95747); settings: Compound concentration 1000.0 nM

Ephrin type-A receptor 5 (Homo sapiens), sequence (P54756 whole entry): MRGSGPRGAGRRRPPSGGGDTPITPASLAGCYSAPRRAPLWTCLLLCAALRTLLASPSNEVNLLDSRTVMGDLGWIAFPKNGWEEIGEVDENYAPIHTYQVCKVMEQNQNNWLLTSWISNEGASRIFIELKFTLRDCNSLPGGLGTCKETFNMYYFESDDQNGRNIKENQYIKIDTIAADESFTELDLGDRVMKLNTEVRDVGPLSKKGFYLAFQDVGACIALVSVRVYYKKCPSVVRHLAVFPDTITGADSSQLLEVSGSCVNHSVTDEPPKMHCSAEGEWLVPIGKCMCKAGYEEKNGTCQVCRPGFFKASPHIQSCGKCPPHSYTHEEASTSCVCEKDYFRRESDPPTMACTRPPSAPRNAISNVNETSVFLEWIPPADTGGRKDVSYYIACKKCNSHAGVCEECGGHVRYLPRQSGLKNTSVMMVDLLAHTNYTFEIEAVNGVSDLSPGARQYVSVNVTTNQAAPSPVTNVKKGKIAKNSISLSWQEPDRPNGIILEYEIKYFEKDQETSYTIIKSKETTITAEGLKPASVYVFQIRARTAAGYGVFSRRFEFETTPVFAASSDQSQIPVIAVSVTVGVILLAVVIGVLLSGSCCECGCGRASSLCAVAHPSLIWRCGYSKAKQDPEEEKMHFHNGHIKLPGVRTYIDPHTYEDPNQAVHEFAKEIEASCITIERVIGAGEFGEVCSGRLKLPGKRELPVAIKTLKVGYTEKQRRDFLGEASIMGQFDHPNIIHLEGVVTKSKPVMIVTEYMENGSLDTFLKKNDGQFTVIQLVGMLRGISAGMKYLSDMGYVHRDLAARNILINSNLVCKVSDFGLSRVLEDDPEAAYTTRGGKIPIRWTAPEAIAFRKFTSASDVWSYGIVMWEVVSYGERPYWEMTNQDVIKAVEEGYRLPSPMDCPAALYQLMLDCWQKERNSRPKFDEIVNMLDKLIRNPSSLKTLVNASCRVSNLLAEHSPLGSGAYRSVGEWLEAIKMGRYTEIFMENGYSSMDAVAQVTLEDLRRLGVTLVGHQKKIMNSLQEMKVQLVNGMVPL

## CS(=O)(=O)NCC[C@H](NC(=O)c1cncc2c1cnn2-c1ccc(F)cc1)c1ccnc(S(C)(=O)=O)c1 [BI 9307]
[1]
  residual activity: 100%
[2]
  residual activity: 98%
[3]
  residual activity: 100%
[4]
  inhibition: -5.93%
[5]
  residual activity: 98%
[6]
  residual activity: 100%
[7]
  inhibition: 5.99%
[8]
  residual activity: 100%
[9]
  residual activity: 99%
[10]
  residual activity: 90%
[11]
  residual activity: 90%
[12]
  residual activity: 89%
[13]
  residual activity: 88%
[14]
  residual activity: 100%
[15]
  inhibition: -5.26%
[16]
  residual activity: 73%
[17]
  residual activity: 100%
[18]
  residual activity: 100%
[19]
  residual activity: 100%
[20]
  residual activity: 100%
[21]
  residual activity: 100%
[22]
  residual activity: 100%
[23]
  residual activity: 100%
[24]
  residual activity: 90%
[25]
  residual activity: 92%
[26]
  residual activity: 100%
[27]
  residual activity: 100%
[28]
  residual activity: 92%
[29]
  residual activity: 100%
[30]
  residual activity: 71%
[31]
  residual activity: 100%
[32]
  residual activity: 100%
[33]
  residual activity: 100%
[34]
  residual activity: 100%
[35]
  residual activity: 100%
[36]
  residual activity: 100%
[37]
  residual activity: 100%
[38]
  residual activity: 100%
[39]
  residual activity: 77%
[40]
  residual activity: 88%
[41]
  residual activity: 99%
[42]
  residual activity: 100%
[43]
  residual activity: 83%
[44]
  residual activity: 77%
[45]
  residual activity: 88%

## CS(=O)(=O)c1cc(C2(NC(=O)c3cncc4c3cnn4-c3ccc(F)cc3)CC2)ccn1 [BI 639667]
[1]
  residual activity: 100%
[2]
  residual activity: 91%
[3]
  residual activity: 100%
[4]
  inhibition: -7.76%
[5]
  residual activity: 90%
[6]
  residual activity: 48%
[7]
  inhibition: 3.92%
[8]
  residual activity: 100%
[9]
  residual activity: 96%
[10]
  residual activity: 100%
[11]
  residual activity: 87%
[12]
  residual activity: 100%
[13]
  residual activity: 87%
[14]
  residual activity: 100%
[15]
  inhibition: 6.62%
[16]
  residual activity: 66%
[17]
  residual activity: 100%
[18]
  residual activity: 100%
[19]
  residual activity: 75%
[20]
  residual activity: 100%
[21]
  residual activity: 81%
[22]
  residual activity: 100%
[23]
  residual activity: 100%
[24]
  residual activity: 100%
[25]
  residual activity: 100%
[26]
  residual activity: 73%
[27]
  residual activity: 100%
[28]
  residual activity: 100%
[29]
  residual activity: 100%
[30]
  residual activity: 66%
[31]
  residual activity: 55%
[32]
  residual activity: 100%
[33]
  residual activity: 84%
[34]
  residual activity: 100%
[35]
  residual activity: 80%
[36]
  residual activity: 76%
[37]
  residual activity: 94%
[38]
  residual activity: 100%
[39]
  residual activity: 100%
[40]
  residual activity: 100%
[41]
  residual activity: 100%
[42]
  residual activity: 96%
[43]
  residual activity: 100%
[44]
  residual activity: 84%
[45]
  residual activity: 85%
